Structures can show the parent of a compound that is named as a salt. Where two headings read alike, the source gives them in different places.
Key:
dopamine D2 receptor = dopamine D2 receptor (Homo sapiens, UniProt P14416); settings: cited from earlier work
[1] = for Saturation concentration: 48 h
Description: The concentrations of the pramipexole salts in different media for saturation at 48 h were determined by a shake flask dissolution method at 37° C.

[2] = Pharmacokinetics of different pramipexole salt suspension injections in rats; type: in vivo; settings: subcutaneous suspension injection
Description: 18 adult rats, including 12 males and 6 females (non-perilactation period), were selected and divided into three groups with 6 rats each group (a ratio of males to females of 2:1), and subcutaneously administered with 2 ml of the suspension injections of Examples 3-5 respectively. The main pharmacokinetic parameters of each of test animals were determined: the time to peak, the maximal blood drug level and AUC0-t.

[3] = Phosphate buffer at pH 6.8, 37° C.
[4] = Phosphate buffer at pH 7.4, 37° C.

dopamine D2 receptor, sequence (P14416 whole entry, species assumed): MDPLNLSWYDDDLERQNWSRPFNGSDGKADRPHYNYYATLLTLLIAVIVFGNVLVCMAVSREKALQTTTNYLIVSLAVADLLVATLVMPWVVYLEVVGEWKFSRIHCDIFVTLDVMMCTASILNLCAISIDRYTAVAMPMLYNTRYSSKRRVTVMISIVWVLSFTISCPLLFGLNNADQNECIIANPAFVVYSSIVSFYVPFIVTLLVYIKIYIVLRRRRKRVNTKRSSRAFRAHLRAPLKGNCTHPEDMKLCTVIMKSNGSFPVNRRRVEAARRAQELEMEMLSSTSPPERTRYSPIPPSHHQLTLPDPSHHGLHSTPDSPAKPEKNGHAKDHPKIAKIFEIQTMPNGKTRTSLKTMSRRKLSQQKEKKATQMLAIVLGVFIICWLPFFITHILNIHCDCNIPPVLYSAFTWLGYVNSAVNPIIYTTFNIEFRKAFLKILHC

Compound	Saturation concentration ([1]; 0.9% NaCl, 37° C.) [µg/mL]	Saturation concentration [1, 3] [µg/mL]	Saturation concentration [1, 4] [µg/mL]	Saturation concentration ([1]; Water for injection, 37° C.) [µg/mL]	other results
CCCN[C@H]1CCc2nc(N)sc2C1 [S(−) isomer, (S)-(−)-2-amino-6-(propylamino)-4,5,6,7-tetrahydrobenzothiazole]	–	–	–	–	Affinity to dopamine D2 receptor relative to the R(+) isomer (dopamine D2 receptor; ratio versus R(+) isomer): 8-10 times; Affinity to dopamine D2 receptor relative to the racemate (dopamine D2 receptor; ratio versus racemate): 2 times
CCCN[C@H]1CCc2nc(N)sc2C1 [pramipexole hydrochloride, Pramipexole hydrochloride]	–	–	–	–	Saturation concentration ([1]; 0.9% NaCl, 37° C., hydrochloride): 1207.41 µg/mL; Saturation concentration ([1]; Phosphate buffer at pH 6.8, 37° C., hydrochloride): 1249.45 µg/mL; Saturation concentration ([1]; Phosphate buffer at pH 7.4, 37° C., hydrochloride): 1363.53 µg/mL; Saturation concentration ([1]; Water for injection, 37° C., hydrochloride): 1187.36 µg/mL
CCCN[C@H]1CCc2nc(N)sc2C1.O=C(O)c1ccccc1 [pramipexole benzoate]	325.91	392.11	427.37	292.72	–
CCCN[C@H]1CCc2nc(N)sc2C1 [pramipexole xinafoate]	1.05	2.64	4.66	0.78	Solubility compared with the other salts ([1]; summary of Table 1): significantly decreased; Duration of sustained release [2]: up to 35 days
pramipexole pamoate	227.63	275.34	345.29	189.25	–

Source: patent US20260022103A1, “PRAMIPEXOLE XINAFOATE AND SUSTAINED-RELEASE PHARMACEUTICAL FORMULATION THEREOF” (JEWIM PHARMACEUTICAL (SHANDONG) CO., LTD., priority 2022, published 2026)
